Source: patent publication US9060512B2, “Biocide compositions (III)” (Cognis IP Management GmbH, priority 2009, dated 2015)

Assays:
[1] = system: Hemp sesbania (Sesbania exaltata=Bayer Code=SEBEX); experiment: Weed control with glyphosate IPA salt, optionally with adjuvant; type: in vivo
Procedure: (§1) Two weeds, Velvet leaf (Abutilion theophrasti=Bayer Code: ABUTH) and Hemp sesbania (Sesbania exaltata=Bayer Code=SEBEX) were treated with a suboptimum rate of 270 g a.e./ha glyphosate IPA salt, optionally in the presence of N,N-Dimethyl levulinic acid amide as an adjuvant (spray volume: 200 l/ha) with three replications over a period of 21 days. Assessments took place for SEBEX after 10 and for ABUTH 20 days after treatment. The efficacy of the biocide/adjuvant composition was determined against a control where the number of weeds in a similar untreated area was set to 0%.

[2] = system: Velvet leaf (Abutilion theophrasti=Bayer Code: ABUTH); experiment: as above; type: in vivo; details: 270 g/ha glyphosate IPA salt, spray volume 200 l/ha, 20 days after treatment, untreated area = 0%
Procedure: as §1

| SMILES | SEBEX Control (weed control) ([1]; 270 g/ha glyphosate IPA salt, spray volume 200 l/ha, 10 days after treatment, untreated area = 0%) [%-rel.] | ABUTH Control (weed control) [2] [%-rel.] | weed control performance of glyphosate on addition of adjuvant ([1]; summary in words, SEBEX and ABUTH) |
| --- | --- | --- | --- |
| CC(C)N.O=C(O)CNCP(=O)(O)O [C3, glyphosate IPA salt] | 50 | 82 | – |
| CC(=O)CCC(=O)N(C)C [Example 6, Levulinic acid dimethylamide] | – | – | improves the weed control performance of glyphosate significantly |
